According to ChEMBL document CHEMBL1151757, “Synthesis, radiosynthesis, and biological evaluation of fluorine-18-labeled 2beta-carbo(fluoroalkoxy)-3beta-(3'-((Z)-2-haloethenyl)phenyl)nortropanes: candidate radioligands for in vivo imaging of the serotonin transporter with positron emission tomography” (J Med Chem, 2008):

Columns and labels:
[1] = Ratio of drug uptake in pons to cerebellum in anesthetized cynomolgus monkey after 105 mins postinjection; type: ADME, organism-based, Macaca fascicularis; settings: in vivo, 1.75 h
[2] = Ratio of drug uptake in medulla to cerebellum in anesthetized cynomolgus monkey after 85 mins postinjection; type: ADME, organism-based, Macaca fascicularis; settings: in vivo
[3] = Drug uptake in anesthetized cynomolgus monkey brain frontal lobe after 27.5 mins postinjection; type: ADME, organism-based, Macaca fascicularis; settings: in vivo
[4] = Drug uptake in anesthetized cynomolgus monkey brain frontal lobe after 45 mins postinjection; type: ADME, organism-based, Macaca fascicularis; settings: in vivo, 0.75 h
[5] = Drug uptake in anesthetized cynomolgus monkey brain frontal lobe after 95 mins postinjection; type: ADME, organism-based, Macaca fascicularis; settings: in vivo
[6] = Ratio of drug uptake in pons to cerebellum in anesthetized cynomolgus monkey after 0.5 mins postinjection; type: ADME, organism-based, Macaca fascicularis; settings: in vivo
[7] = system: Putamen; test: Drug uptake in anesthetized cynomolgus monkey brain putamen after 145 mins postinjection; type: ADME, organism-based, Macaca fascicularis; settings: in vivo
[8] = system: Thalamus; test: Drug uptake in anesthetized cynomolgus monkey brain thalamus after 1.5 mins postinjection; type: ADME, organism-based, Macaca fascicularis; settings: in vivo, 0.025 h
[9] = system: Midbrain; test: Drug uptake in anesthetized cynomolgus monkey brain midbrain after 165 mins postinjection; type: ADME, organism-based, Macaca fascicularis; settings: in vivo, 2.75 h
[10] = system: Midbrain; test: Drug uptake in anesthetized cynomolgus monkey brain midbrain after 215 mins postinjection; type: ADME, organism-based, Macaca fascicularis; settings: in vivo
[11] = system: Pons; test: Drug uptake in anesthetized cynomolgus monkey brain pons after 0.5 mins postinjection; type: ADME, organism-based, Macaca fascicularis; settings: in vivo
[12] = system: Pons; test: Drug uptake in anesthetized cynomolgus monkey brain pons after 1.5 mins postinjection; type: ADME, organism-based, Macaca fascicularis; settings: in vivo, 0.025 h
[13] = system: Pons; test: Drug uptake in anesthetized cynomolgus monkey brain pons after 45 mins postinjection; type: ADME, organism-based, Macaca fascicularis; settings: in vivo, 0.75 h
[14] = system: Pons; test: Drug uptake in anesthetized cynomolgus monkey brain pons after 75 mins postinjection; type: ADME, organism-based, Macaca fascicularis; settings: in vivo, 1.25 h
[15] = system: Pons; test: Drug uptake in anesthetized cynomolgus monkey brain pons after 105 mins postinjection; type: ADME, organism-based, Macaca fascicularis; settings: in vivo, 1.75 h
[16] = system: Pons; test: Drug uptake in anesthetized cynomolgus monkey brain pons after 145 mins postinjection; type: ADME, organism-based, Macaca fascicularis; settings: in vivo
[17] = system: Medulla; test: Drug uptake in anesthetized cynomolgus monkey brain medulla after 1.5 mins postinjection; type: ADME, organism-based, Macaca fascicularis; settings: in vivo, 0.025 h
[18] = system: Medulla; test: Drug uptake in anesthetized cynomolgus monkey brain medulla after 2.5 mins postinjection; type: ADME, organism-based, Macaca fascicularis; settings: in vivo
[19] = system: Medulla; test: Drug uptake in anesthetized cynomolgus monkey brain medulla after 95 mins postinjection; type: ADME, organism-based, Macaca fascicularis; settings: in vivo
[20] = Ratio of drug uptake in putamen to cerebellum in anesthetized cynomolgus monkey after 45 mins postinjection; type: ADME, organism-based, Macaca fascicularis; settings: in vivo, 0.75 h
[21] = system: Medulla; test: Drug uptake in anesthetized cynomolgus monkey brain medulla after 135 mins postinjection; type: ADME, organism-based, Macaca fascicularis; settings: in vivo, 2.25 h
[22] = Ratio of drug uptake in putamen to cerebellum in anesthetized cynomolgus monkey after 75 mins postinjection; type: ADME, organism-based, Macaca fascicularis; settings: in vivo, 1.25 h
[23] = Ratio of drug uptake in putamen to cerebellum in anesthetized cynomolgus monkey after 155 mins postinjection; type: ADME, organism-based, Macaca fascicularis; settings: in vivo
[24] = system: Medulla; test: Drug uptake in anesthetized cynomolgus monkey brain medulla after 225 mins postinjection; type: ADME, organism-based, Macaca fascicularis; settings: in vivo, 3.75 h
[25] = Drug uptake in anesthetized cynomolgus monkey brain cerebellum after 0.5 mins postinjection; type: ADME, organism-based, Macaca fascicularis; settings: in vivo
[26] = Drug uptake in anesthetized cynomolgus monkey brain cerebellum after 1.5 mins postinjection; type: ADME, organism-based, Macaca fascicularis; settings: in vivo, 0.025 h
[27] = Drug uptake in anesthetized cynomolgus monkey brain cerebellum after 95 mins postinjection; type: ADME, organism-based, Macaca fascicularis; settings: in vivo
[28] = system: Medulla; test: Drug uptake in anesthetized cynomolgus monkey brain medulla after 115 mins postinjection; type: ADME, organism-based, Macaca fascicularis; settings: in vivo
[29] = Drug uptake in anesthetized cynomolgus monkey brain cerebellum after 175 mins postinjection; type: ADME, organism-based, Macaca fascicularis; settings: in vivo
[30] = Ratio of drug uptake in thalamus to cerebellum in anesthetized cynomolgus monkey after 135 mins postinjection; type: ADME, organism-based, Macaca fascicularis; settings: in vivo, 2.25 h
[31] = system: Caudate; test: Drug uptake in anesthetized cynomolgus monkey brain caudate after 2.5 mins postinjection; type: ADME, organism-based, Macaca fascicularis, Caudate nucleus; settings: in vivo
[32] = system: Caudate; test: Drug uptake in anesthetized cynomolgus monkey brain caudate after 15.5 mins postinjection; type: ADME, organism-based, Macaca fascicularis, Caudate nucleus; settings: in vivo
[33] = system: Caudate; test: Drug uptake in anesthetized cynomolgus monkey brain caudate after 18.5 mins postinjection; type: ADME, organism-based, Macaca fascicularis, Caudate nucleus; settings: in vivo
[34] = system: Caudate; test: Drug uptake in anesthetized cynomolgus monkey brain caudate after 55 mins postinjection; type: ADME, organism-based, Macaca fascicularis, Caudate nucleus; settings: in vivo
[35] = system: Caudate; test: Drug uptake in anesthetized cynomolgus monkey brain caudate after 115 mins postinjection; type: ADME, organism-based, Macaca fascicularis, Caudate nucleus; settings: in vivo
[36] = system: Caudate; test: Drug uptake in anesthetized cynomolgus monkey brain caudate after 145 mins postinjection; type: ADME, organism-based, Macaca fascicularis, Caudate nucleus; settings: in vivo
[37] = system: Caudate; test: Drug uptake in anesthetized cynomolgus monkey brain caudate after 175 mins postinjection; type: ADME, organism-based, Macaca fascicularis, Caudate nucleus; settings: in vivo
[38] = system: Caudate; test: Drug uptake in anesthetized cynomolgus monkey brain caudate after 225 mins postinjection; type: ADME, organism-based, Macaca fascicularis, Caudate nucleus; settings: in vivo, 3.75 h
[39] = system: Thalamus; test: Drug uptake in anesthetized cynomolgus monkey brain thalamus after 3.5 mins postinjection; type: ADME, organism-based, Macaca fascicularis; set-up: unit not given here; settings: in vivo
[40] = system: Thalamus; test: Drug uptake in anesthetized cynomolgus monkey brain thalamus after 22.5 mins postinjection; type: ADME, organism-based, Macaca fascicularis; set-up: unit not given here; settings: in vivo, 0.375 h
[41] = system: Putamen; test: Drug uptake in anesthetized cynomolgus monkey brain putamen after 4.5 mins postinjection; type: ADME, organism-based, Macaca fascicularis; set-up: unit not given here; settings: in vivo, 0.075 h
[42] = system: Putamen; test: Drug uptake in anesthetized cynomolgus monkey brain putamen after 18.5 mins postinjection; type: ADME, organism-based, Macaca fascicularis; set-up: unit not given here; settings: in vivo
[43] = system: Thalamus; test: Drug uptake in anesthetized cynomolgus monkey brain thalamus after 95 mins postinjection; type: ADME, organism-based, Macaca fascicularis; set-up: unit not given here; settings: in vivo
[44] = system: Thalamus; test: Drug uptake in anesthetized cynomolgus monkey brain thalamus after 165 mins postinjection; type: ADME, organism-based, Macaca fascicularis; set-up: unit not given here; settings: in vivo, 2.75 h
[45] = system: Thalamus; test: Drug uptake in anesthetized cynomolgus monkey brain thalamus after 225 mins postinjection; type: ADME, organism-based, Macaca fascicularis; set-up: unit not given here; settings: in vivo, 3.75 h
[46] = system: Midbrain; test: Drug uptake in anesthetized cynomolgus monkey brain midbrain after 6.5 mins postinjection; type: ADME, organism-based, Macaca fascicularis; set-up: unit not given here; settings: in vivo
[47] = system: Midbrain; test: Drug uptake in anesthetized cynomolgus monkey brain midbrain after 12.5 mins postinjection; type: ADME, organism-based, Macaca fascicularis; set-up: unit not given here; settings: in vivo
[48] = system: Midbrain; test: Drug uptake in anesthetized cynomolgus monkey brain midbrain after 65 mins postinjection; type: ADME, organism-based, Macaca fascicularis; set-up: unit not given here; settings: in vivo
[49] = Ratio of drug uptake in midbrain to cerebellum in anesthetized cynomolgus monkey after 9.5 mins postinjection; type: ADME, organism-based, Macaca fascicularis; settings: in vivo
[50] = Ratio of drug uptake in midbrain to cerebellum in anesthetized cynomolgus monkey after 18.5 mins postinjection; type: ADME, organism-based, Macaca fascicularis; settings: in vivo
[51] = Ratio of drug uptake in midbrain to cerebellum in anesthetized cynomolgus monkey after 125 mins postinjection; type: ADME, organism-based, Macaca fascicularis; settings: in vivo
[52] = Ratio of drug uptake in midbrain to cerebellum in anesthetized cynomolgus monkey after 135 mins postinjection; type: ADME, organism-based, Macaca fascicularis; settings: in vivo, 2.25 h
[53] = Ratio of drug uptake in pons to cerebellum in anesthetized cynomolgus monkey after 125 mins postinjection; type: ADME, organism-based, Macaca fascicularis; settings: in vivo
[54] = Ratio of drug uptake in pons to cerebellum in anesthetized cynomolgus monkey after 195 mins postinjection; type: ADME, organism-based, Macaca fascicularis; settings: in vivo, 3.25 h
[55] = Ratio of drug uptake in midbrain to cerebellum in anesthetized cynomolgus monkey after 235 mins postinjection; type: ADME, organism-based, Macaca fascicularis; settings: in vivo
[56] = Ratio of drug uptake in midbrain to cerebellum in anesthetized cynomolgus monkey after 185 mins postinjection; type: ADME, organism-based, Macaca fascicularis; settings: in vivo
[57] = system: Thalamus; test: Drug uptake in anesthetized cynomolgus monkey brain thalamus after 195 mins postinjection; type: ADME, organism-based, Macaca fascicularis; settings: in vivo, 3.25 h
[58] = Drug uptake in anesthetized cynomolgus monkey brain frontal lobe after 195 mins postinjection; type: ADME, organism-based, Macaca fascicularis; settings: in vivo, 3.25 h
[59] = system: Caudate; test: Drug uptake in anesthetized cynomolgus monkey brain caudate after 195 mins postinjection; type: ADME, organism-based, Macaca fascicularis, Caudate nucleus; settings: in vivo, 3.25 h

## O=C(OCC[18F])C1C2CCC(CC1c1cccc(/C=C\I)c1)N2 (configuration not stated)
[1]
  Ratio: 1.3
[2]
  Ratio: 1.3
[3]
  Drug uptake: 2.82
[4]
  Drug uptake: 2.95
[5]
  Drug uptake: 2.53
[6]
  Ratio: 1.7
[7]
  Drug uptake: 3.27
[8]
  Drug uptake: 0.09
[9]
  Drug uptake: 3.53
[10]
  Drug uptake: 3.12
[11]
  Drug uptake: 0
[12]
  Drug uptake: 0.09
[13]
  Drug uptake: 3.34
[14]
  Drug uptake: 3.21
[15]
  Drug uptake: 3.01
[16]
  Drug uptake: 2.57
[17]
  Drug uptake: 0.13
[18]
  Drug uptake: 0.52
[19]
  Drug uptake: 3.56
[20]
  Ratio: 1.2
[21]
  Drug uptake: 3.24
[22]
  Ratio: 1.4
[23]
  Ratio: 1.8
[24]
  Drug uptake: 2.37
[25]
  Drug uptake: 0
[26]
  Drug uptake: 0.11
[27]
  Drug uptake: 2.61
[28]
  Drug uptake: 3.43
[29]
  Drug uptake: 1.57
[30]
  Ratio: 1.8
[31]
  Drug uptake: 0.37
[32]
  Drug uptake: 2.94
[33]
  Drug uptake: 3.07
[34]
  Drug uptake: 3.72
[35]
  Drug uptake: 3.17
[36]
  Drug uptake: 2.75
[37]
  Drug uptake: 2.43
[38]
  Drug uptake: 2.02
[39]
  Drug uptake: 0.96
[40]
  Drug uptake: 3.88
[41]
  Drug uptake: 1.53
[42]
  Drug uptake: 3.78
[43]
  Drug uptake: 3.91
[44]
  Drug uptake: 2.91
[45]
  Drug uptake: 2.29
[46]
  Drug uptake: 2.99
[47]
  Drug uptake: 3.95
[48]
  Drug uptake: 4.91
[49]
  Ratio: 1
[50]
  Ratio: 1.1
[51]
  Ratio: 2
[52]
  Ratio: 2

## O=C(OCC[18F])C1C2CCC(CC1c1ccc(/C=C\I)cc1)N2 (configuration not stated)
[1]
  Ratio: 1.8
[53]
  Ratio: 2.1
[54]
  Ratio: 2.6
[2]
  Ratio: 1.8
[3]
  Drug uptake: 1.76
[4]
  Drug uptake: 1.95
[5]
  Drug uptake: 2.03
[55]
  Ratio: 4.4
[56]
  Ratio: 3.5
[7]
  Drug uptake: 4.31
[8]
  Drug uptake: 0.11
[9]
  Drug uptake: 4.6
[10]
  Drug uptake: 4.63
[11]
  Drug uptake: 0
[12]
  Drug uptake: 0.06
[13]
  Drug uptake: 3.09
[14]
  Drug uptake: 3.39
[15]
  Drug uptake: 3.4
[57]
  Drug uptake: 3.67
[58]
  Drug uptake: 1.7
[59]
  Drug uptake: 2.85
[16]
  Drug uptake: 3.51
[17]
  Drug uptake: 0.14
[18]
  Drug uptake: 0.5
[19]
  Drug uptake: 3.88
[20]
  Ratio: 1.4
[21]
  Drug uptake: 3.69
[22]
  Ratio: 1.8
[23]
  Ratio: 2.8
[24]
  Drug uptake: 3.24
[25]
  Drug uptake: 0
[26]
  Drug uptake: 0.1
[27]
  Drug uptake: 2.14
[28]
  Drug uptake: 3.8
[29]
  Drug uptake: 1.3
[31]
  Drug uptake: 0.29
[32]
  Drug uptake: 1.74
[33]
  Drug uptake: 1.84
[34]
  Drug uptake: 2.73
[35]
  Drug uptake: 3.11
[36]
  Drug uptake: 3.05
[37]
  Drug uptake: 3
[38]
  Drug uptake: 2.68
[39]
  Drug uptake: 0.76
[40]
  Drug uptake: 2.9
[41]
  Drug uptake: 1.18
[42]
  Drug uptake: 2.87
[43]
  Drug uptake: 4.15
[44]
  Drug uptake: 3.88
[45]
  Drug uptake: 3.35
[46]
  Drug uptake: 1.74
[47]
  Drug uptake: 2.38
[48]
  Drug uptake: 4.13
[51]
  Ratio: 2.7
[52]
  Ratio: 2.8
